According to the NIST ThermoML archive (doi:10.1016/j.jct.2013.12.024):
± gives the expanded uncertainty stated by the source.

settings: 298.15 K; 101.33 kPa; Liquid; Vibrating tube method

Point of comparison: `CCCCCCCl` [1-chlorohexane], mass density 873.38 ± 0.3 kg/m3. Against it:
- Clc1cccc(Cl)c1 [1,3-dichlorobenzene] — higher, 1282.87 ± 0.61 kg/m3
- c1ccccc1 [benzene] — within error, 873.45 ± 0.11 kg/m3
